We go through 14 compounds from patent publication US20230399314A1, “CD73 INHIBITOR AND USE THEREOF” (WUHAN HUMANWELL INNOVATIVE DRUG RESEARCH AND DEVELOPMENT …, priority 2020, published 2023).

The target in one data set is Human-CD73 enzyme (Homo sapiens (Human), UniProt P21589). Briefly: In vitro inhibitory activity to recombinant human CD73 enzyme (ATP-GLO). The format is biochemical. The conditions noted are these: Human-CD73 0.1 μg/mL, AMP 100 μM. The procedure:
Human-CD73 (Novoprotein; C446) was diluted with Tris-MgCl2 buffer to form a stock solution (3×), which was placed in a 96-well plate according to 20 μL/well to obtain a final concentration of 0.1 μg/mL. The compound was diluted with Tris-MgCl2 buffer to form a stock solution (3×) of an appropriate concentration gradient, the compound solution was added to the above 96-well plate according to 20 μL/well and uniformly mixed with the Human-CD73 solution, and the mixture was incubated at the room temperature for 30 min. Meanwhile, a positive reference group (without the compound) and a negative reference group (without CD73) were set. AMP (Sigma; A1752-5G) was diluted with Tris-MgCl2 buffer to form a stock solution (3×), which was added to the above 96-well plate according to 20 μL/well to obtain a final concentration of 100 μM, and the mixture was uniformly mixed and incubated at 37° C. for 60 min; ATP (Sigma; A7699-1G) was diluted with Tris-MgCl2 buffer to form a stock solution (7×), which was added to the above 96-well plate according to 10 μL/well to obtain a final concentration of 100 μM, and the mixture was uniformly mixed, incubated for 5 min, and tested by using an ATP-GLO kit (Promega; G7573).
Human-CD73 inhibition rates of the compound at different concentrations were calculated according to the following formula, the concentration of the compound was taken as the X-axis, the inhibition rate was taken as the Y-axis, and an IC50 value of the compound in inhibiting Human-CD73 was calculated by using Prism software.

Data set [1] addresses CD73 bound to the surfaces of A375 cells (Homo sapiens (Human), UniProt P21589). Briefly: Inhibitory activity to CD73 enzyme bound to the surfaces of human melanoma A375 cells. It counts as cell-based. The conditions noted are these: AMP 200 μM, 16 h. The procedure: The compound was diluted with serum-free DMEM to form a stock solution (5×) of an appropriate concentration gradient, the compound solution was added to the cells in the above 96-well plate according to 20 μL/well, and the mixture was placed in an incubator and pre-incubated for 30 min.
A375-bound CD73 inhibition rates of the compound at different concentrations were calculated according to the following formula, the concentration of the compound was taken as the X-axis, the inhibition rate was taken as the Y-axis, and an IC50 value of the compound in inhibiting A375-bound CD73 was calculated by using Prism software.

A short description of data set [2]: Pharmacokinetic test on mice. The format is in vivo, male ICR mice. The conditions noted are these: for half-life / AUC(0-t) / Cmax / Tmax / clearance / Vd: male, ICR, plasma, mouse; for AUC(0-t): read-out: AUC0-t; for Cmax: read-out: Cmax; for Tmax: read-out: Tmax; for Vd: read-out: Vz. The procedure: (§1) In a pharmacokinetic test on mice, male ICR mice of 20 g to 25 g were used and fasted overnight. 3 mice were selected for orally intragastric administration (10 mg/kg). Before administration, and 15 min, 30 min, 1 h, 2 h, 4 h, 8 h, and 24 h after administration, blood was sampled from each mouse. Another 3 mice were selected for intravenous injection administration (3 mg/kg), and before administration, and 15 min, 30 min, 1 h, 2 h, 4 h, 8 h, and 24 h after administration, blood was sampled from each mouse. The blood sample was centrifuged at 6,800 g and 2 to 8° C. for 6 min, and plasma was collected and stored at −80° C. The plasma of each time point was vortex-mixed for 1 min with an acetonitrile solution containing the internal standard with a volume 3-5 times that of the plasma of each time point, and centrifuged at 13,000 rpm and 4° C. for 10 min, a supernatant was collected and mixed with water with a volume 3 times that of the supernatant, and an appropriate amount of the mixed solution was used for LC-MS/MS analysis. The main pharmacokinetic parameters were analyzed by using a WinNonlin 7.0 non-compartmental model.

A short description of data set [3]: Pharmacokinetic test on dogs. The format is in vivo, male Beagle dogs. The procedure: as §1
In a pharmacokinetic test on dogs, male Beagle dogs of 8 to 10 kg were used and fasted overnight. 3 Beagle dogs were selected for orally intragastric administration (5 mg/kg). Another 3 Beagle dogs were selected for intravenous injection administration (1 mg/kg). Other operations were the same as the pharmacokinetic test on mice.

In a further data set the test system is Human CD4+ T cells. Description: Relieving AMP-induced proliferation inhibition of human CD4+ T cells (CCK8). It counts as cell-based. The conditions noted are these: Homo sapiens, 120 h, AMP 0.3 mM, day 5. The procedure: On day 1 of the experiment, CD4^+ T cells (Allcells Shanghai, PB009-2F-C) were thawed, and inoculated into two replicate wells according to 3×10^4 cells/well and 50 μL/well. The compound was diluted with a complete medium to form a stock solution (4×) of an appropriate concentration gradient, the compound solution was added to the above cells according to 50 μL/well, and the mixture was pre-incubated at 37° C. for 30 min. […] Meanwhile, a positive reference group (Human CD4^+ T+IL-2+CD3/CD28 beads) and a negative reference group (Human CD4^+ T+IL-2+CD3/CD28 beads+AMP) were set. AMP (Sigma; A1752-5G) was diluted with a complete medium to form an AMP solution (4×), the AMP solution was added to the above cells according to 50 μL/well, the final concentration was 0.3 mM, and the mixture was incubated at 37° C. On day 3 of the experiment, the AMP solution was added to the above plate according to 20 μL/well, and the final concentration was 0.3 mM. On day 5, the proliferation of the cells was detected by using a CCK8 kit (DojinDO; CK04).
Inhibition rates of the compound at different concentrations in relieving AMP-induced proliferation inhibition of CD4^+ T cells were calculated according to the following formula, the concentration of the compound was taken as the X-axis, the inhibition rate was taken as the Y-axis, and an EC50 value of the compound in relieving the AMP-induced proliferation inhibition of CD4^+ T cells was calculated by using Prism software.

[4] abbreviates: po, orally intragastric 10 mg/kg.
The mark [5] stands for this setting: male, Beagle, plasma, po, dog, orally intragastric 5 mg/kg.
The mark [6] stands for this setting: male, Beagle, plasma, dog, intravenous injection 1 mg/kg.

CD73 bound to the surfaces of A375 cells, sequence (P21589 27-574): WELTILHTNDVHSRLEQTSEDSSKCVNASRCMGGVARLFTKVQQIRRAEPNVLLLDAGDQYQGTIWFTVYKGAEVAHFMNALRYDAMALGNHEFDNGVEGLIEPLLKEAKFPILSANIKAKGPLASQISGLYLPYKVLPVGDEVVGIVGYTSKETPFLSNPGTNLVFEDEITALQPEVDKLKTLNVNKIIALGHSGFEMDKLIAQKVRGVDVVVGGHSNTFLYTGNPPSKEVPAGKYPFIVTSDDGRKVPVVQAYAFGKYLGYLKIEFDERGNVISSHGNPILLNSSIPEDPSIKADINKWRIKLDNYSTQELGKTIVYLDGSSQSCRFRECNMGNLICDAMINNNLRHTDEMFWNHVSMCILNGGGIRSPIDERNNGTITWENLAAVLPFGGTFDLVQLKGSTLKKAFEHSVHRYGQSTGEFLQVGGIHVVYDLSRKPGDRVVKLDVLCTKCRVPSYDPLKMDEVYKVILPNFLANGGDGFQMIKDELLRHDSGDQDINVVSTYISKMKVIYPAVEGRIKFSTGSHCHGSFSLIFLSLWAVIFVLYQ
Human-CD73 enzyme, sequence (P21589 27-574): as above

Take `CCOC[C@H]1C[C@@H]1c1cc(-c2c[nH]c(=O)[nH]c2=O)nnc1Cl` [Compound 16, 5-(6-chloro-5-((1S,2S)-2-(ethoxymethyl)cyclopropyl)pyridazin-3-yl)-1H-pyrimidine-2,4-dione]: the IC50 (as a rule, the concentration that inhibits the measured activity by half) on Human-CD73 enzyme came to 173 nM.

With `N#Cc1nnc(-c2c[nH]c(=O)[nH]c2=O)cc1[C@H]1C[C@@H]1C(F)(F)F` [Compound 15, 6-(2,4-dioxo-1H-pyrimidin-5-yl)-4-((1S,2S)-2-(trifluoromethyl)cyclopropyl)pyridazine-3-carbonitrile], the IC50 on Human-CD73 enzyme was 123 nM.

As for `O=c1[nH]cc(-c2cc([C@@H]3C[C@H]3CC(F)F)c(Cl)nn2)c(=O)[nH]1` [Compound 19, 5-(6-chloro-5-((1R,2S)-2-(2,2-difluoroethyl)cyclopropyl)pyridazin-3-yl)pyrimidine-2,4(1H,3H)-dione], the IC50 at Human-CD73 enzyme was 1250 nM.

As for `COC[C@H]1C[C@@H]1c1cc(-c2c[nH]c(=O)[nH]c2=O)nnc1Cl` [Compound 12, 5-(6-chloro-5-((1S,2S)-2-(methoxymethyl)cyclopropyl)pyridazin-3-yl)pyrimidine-2,4(1H,3H)-dione], the IC50 at Human-CD73 enzyme is 15.4 nM.

On to `CC(C)(O)[C@H]1C[C@@H]1c1cc(-c2c[nH]c(=O)[nH]c2=O)nnc1Cl` [Compound 5, 5-(6-chloro-5-((1S,2S)-2-(2-hydroxypropan-2-yl)cyclopropyl)pyridazin-3-yl)pyrimidine-2,4(1H,3H)-dione], for which, on Human-CD73 enzyme, the IC50 was determined as 11.6 nM.

Regarding `O=c1[nH]cc(-c2cc([C@H]3C[C@@H]3CC(F)F)c(Cl)nn2)c(=O)[nH]1` [Compound 18, 5-(6-chloro-5-((1S,2R)-2-(2,2-difluoroethyl)cyclopropyl)pyridazin-3-yl)pyrimidine-2,4(1H,3H)-dione], the IC50 in data set [1] came out at 17.6 nM. In addition, in data set [2] (setting [4]), the half-life (in general, the time in which the quantity being followed falls by half) is 1.43 h; the AUC(0-t) turned out to be 9800 ng·h/mL; the maximum concentration (Cmax) (in general, the highest concentration seen after dosing) was 4410 ng/mL; the Tmax (commonly the time from dosing to the highest level) stood at 0.42 h. Besides, in data set [2] (intravenous injection 3 mg/kg), the clearance (usually a measure of how efficiently the substance is removed, as volume per time) is 10.3 mL/min/kg; the half-life is 1.82 h; the AUC(0-t) turned out to be 5070 ng·h/mL; the Vd worked out at 1.5 L/kg.

Consider `O=c1[nH]cc(-c2cc([C@H]3C[C@@H]3COC(F)(F)F)c(Cl)nn2)c(=O)[nH]1` [Compound 11, 5-(6-chloro-5-((1S,2S)-2-((trifluoromethoxy)methyl)cyclopropyl)pyridazin-3-yl)pyrimidine-2,4(1H,3H)-dione], for which the “exposure compared to the reference compounds” value in data set [3] (dogs) is “much higher”. In addition, in data set [3] (setting [5]), the AUC(0-t) turned out to be 16600 ng·h/mL, the Cmax stood at 5710 ng/mL, the time to peak (Tmax) was 0.83 h and the half-life was 2.27 h. In data set [3] (setting [6]), this compound gave an AUC(0-t) of 2100 ng·h/mL, a clearance of 8.83 mL/min/kg and a half-life of 0.89 h. Besides, the Vd in data set [3] (male, Beagle, plasma, dog, intravenous injection 1 mg/kg, read-out: Vz) came out at 0.66 L/kg. The concentration giving a half-maximal response (EC50) (as a rule, the midpoint of the concentration-response curve) in the data set with Human CD4+ T cells was determined as 169 nM. Besides, in data set [2] (setting [4]), the half-life was 3.06 h, the AUC(0-t) worked out at 36200 ng·h/mL, the maximum concentration (Cmax) worked out at 5530 ng/mL and the Tmax came out at 0.67 h. Further, in data set [2] (intravenous injection 3 mg/kg), the clearance is 7.83 mL/min/kg, the half-life was 3.72 h, the AUC(0-t) came to 6950 ng·h/mL and the Vd amounted to 2.57 L/kg. Moreover, the “pharmacokinetic properties compared to the reference compounds” value in data set [2] (mice) is on record as “significantly improved”.

Take `O=c1[nH]cc(-c2cc([C@@H]3C[C@H]3CC(F)(F)F)c(Cl)nn2)c(=O)[nH]1` [Compound 13, 5-(6-chloro-5-((1R,2S)-2-(2,2,2-trifluoroethyl)cyclopropyl)pyridazin-3-yl)pyrimidine-2,4(1H,3H)-dione]: the IC50 at Human-CD73 enzyme came out at 6870 nM.

Turning to `CC(C)OC[C@H]1C[C@@H]1c1cc(-c2c[nH]c(=O)[nH]c2=O)nnc1Cl` [Compound 17, 5-(6-chloro-5-((1S,2S)-2-(isopropoxymethyl)cyclopropyl)pyridazin-3-yl)-1H-pyrimidine-2,4-dione], the IC50 at Human-CD73 enzyme came out at 164 nM.

`Cc1nnc(-c2c[nH]c(=O)[nH]c2=O)cc1[C@H]1C[C@@H]1C(F)(F)F` [Compound 7, 5-(6-methyl-5-((1S,2S)-2-(trifluoromethyl)cyclopropyl)pyridazin-3-yl)pyrimidine-2,4(1H,3H)-dione]: the IC50 in data set [1] came out at 54.9 nM; on Human-CD73 enzyme, 32.1 nM.

`O=c1[nH]cc(-c2cc([C@@H]3C[C@H]3CF)c(Cl)nn2)c(=O)[nH]1` [Compound 8, 5-(6-chloro-5-((1R,2R)-2-(fluoromethyl)cyclopropyl)pyridazin-3-yl)pyrimidine-2,4(1H,3H)-dione]: the 50% inhibitory concentration (IC50) on Human-CD73 enzyme was determined as 16.5 nM.

Turning to `CC(O)[C@H]1C[C@@H]1c1cc(-c2c[nH]c(=O)[nH]c2=O)nnc1Cl` (stereo partly drawn) [Compound 6, 5-(6-chloro-5-((1S,2S)-2-(1-hydroxyethyl)cyclopropyl)pyridazin-3-yl)pyrimidine-2,4(1H,3H)-dione], the IC50 on Human-CD73 enzyme amounted to 24.5 nM.

For `Cc1nnc(-c2c[nH]c(=O)[nH]c2=O)cc1[C@H]1C[C@@H]1CF` [Compound 20, 5-(5-((1S,2S)-2-(fluoromethyl)cyclopropyl)-6-methylpyridazin-3-yl)pyrimidine-2,4(1H,3H)-dione], on Human-CD73 enzyme, the half-maximal inhibitory concentration (IC50) turned out to be 9.55 nM.

Take `Cc1nnc(-c2c[nH]c(=O)[nH]c2=O)cc1[C@H]1C[C@@H]1C(F)F` [Reference compound 1, 5-(5-((1S,2S)-2-(difluoromethyl)cyclopropyl)-6-methylpyridazin-3-yl)pyrimidine-2,4(1H,3H)-dione, reference compound]: the IC50 in data set [1] worked out at 247 nM. For the same compound, at Human-CD73 enzyme, the IC50 worked out at 12.5 nM. Moreover, in data set [2] (setting [4]), the half-life is 1.17 h, the AUC(0-t) was 821 ng·h/mL, the peak concentration (Cmax) is 1150 ng/mL and the Tmax worked out at 0.25 h. Further, in data set [2] (intravenous injection 3 mg/kg), the clearance was 85.2 mL/min/kg, the half-life is 1.99 h, the AUC(0-t) was determined as 585 ng·h/mL and the Vd came out at 14.7 L/kg.
